Measurements reported in patent US20250057832A1, “USE OF A CLASS OF 1,4-DIHYDRO-NAPHTHYRIDINE DERIVATIVES IN TREATMENT OF TUMORS” (NEURODAWN PHARMACEUTICAL CO., LTD., priority 2021, published 2025).

How the values were obtained:
[1] = system: T98G cells; experiment: Vacuolation induction in T98G cells (Example 1); assay type: cell-based, human
Experimental: T98G cells were stably passaged twice. When the cell density reached more than 85%, the cells were digested with 0.05% trypsin-EDTA for 3 minutes, resuspended with the culture medium, and plated in a 12-well plate at a certain density, with each well system being 1 mL. The cells were cultured for 24 hours, and added with the compound solution prepared above to each well according to the grouping, so that the concentrations of the compounds in the culture system were respectively 5 μM, 10 μM, 20 μM, 40 μM, and 60 μM. An equal volume of DMSO was added as a control well.
After 6 hours of drug treatment, the plates were observed under a microscope with a 20× objective lens, and five fields of view were randomly selected for each well to take photos and record. If in the observed field of view, bright vacuoles with clear border appeared in the cell, and at least one of the following conditions was met: 1) a cell contained at least 1 vacuole with a diameter greater than 3 μm; 2) a cell contained 3 or more vacuoles with a diameter within the range of 0.5-3 μm, the cell was considered to be methuosis-positive cells.
Among them, CELL positive: the number of methuosis-positive cells; CELL normal: the number of cells with normal morphology

[2] = system: A172; experiment: Vacuolation phenotype by S2 (Example 2); assay type: cell-based, human; settings: A172, 30 μM, 6 hours
Experimental: (§1) U87MG, T98G, U251, SK-N-SH, A-172 and HepG2 cells were adherently cultured in MEM+10% FBS+1% P/S medium and passaged at 1:3; CT26.WT cells were adherently cultured in RPMI-1640+10% FBS+1% P/S medium and passaged at 1:3; CHO-K1 was cultured adherently in Ham's F-12K+10% FBS+[…] medium and passaged at 1:3.
(§2) The cells used above were resuscitated and passaged twice stably. When the cell density reached above 85%, the cells were digested with 0.05% trypsin-EDTA for 3 minutes, resuspended with the culture medium, and plated into a 6-well plate at a certain density, with each well system being 2 mL. The cells were cultured for 24 hours, added with 2 μL of the above-prepared S2 solution (final DMSO concentration 0.1%) to each well according to the grouping, such that the S2 concentration in the cell culture system reached 30 μM.
(§3) After 6 hours of drug treatment, the plate was observed under a microscope with a 20× objective lens, and five fields of view were randomly selected for each well to take photos and record. If bright vacuoles with clear border appeared in the cell in the observed field of view, and at least one of the following conditions was met: 1) a cell contained at least one vacuole with a diameter greater than […]; 2) a cell contained 3 or more vacuoles with a diameter within the range of […], the cell was considered as a methuosis-positive cell (Journal of Medicinal Chemistry 2018 61 (12), 5424-5434).
(§4) CELLpositive: the number of methuosis-positive cells; CELLnormal: the number of cells with normal morphology

[3] = system: HepG2; experiment: Vacuolation phenotype by S2 (Example 2); assay type: cell-based, human; settings: HepG2, 30 μM, 6 hours
Experimental: as §1, §2, §3, §4

[4] = system: SK-N-SH; experiment: Vacuolation phenotype by S2 (Example 2); assay type: cell-based, human; settings: 30 μM, 6 hours
Experimental: as §1, §2, §3, §4

[5] = system: T98G; experiment: Vacuolation phenotype by S2 (Example 2); assay type: cell-based, human; settings: 30 μM, 6 hours
Experimental: as §1, §2, §3, §4

[6] = system: U251; experiment: Vacuolation phenotype by S2 (Example 2); assay type: cell-based, human; settings: U251, 30 μM, 6 hours
Experimental: as §1, §2, §3, §4

[7] = system: CT26.WT; experiment: Vacuolation phenotype by S2 (Example 2); assay type: cell-based, mouse; settings: 30 μM, 6 hours
Experimental: as §1, §2
After 6 hours of drug treatment, the plate was observed under a microscope with a 20× objective lens, and five fields of view were randomly selected for each well to take photos and record. […]

[8] = system: neural tumor cells and non-neural tumor systems; experiment: Cell viability assay, summary over tumor cell lines (Example 2); assay type: cell-based; settings: neural and non-neural tumor cells of Table 3, 48 hours; read-out: IC50, range over tumor cell lines
Experimental: as §1
The above various cells were resuscitated and stably passaged twice. When the cell density reached above 85%, the cells were digested with 0.05% trypsin-EDTA for three minutes, resuspended, plated in a 96-well plate at the corresponding density, and cultured for 24 hours. The cells were treated with drugs at final concentrations of the culture system of 0.41 μM, 1.23 μM, 3.7 μM, 11.1 μM, 33.3 μM, and 100 μM. After 48 hours of drug treatment, cell viability was determined using CellCounting-Lite™ 2.0 kit. The plate was added with reagents at 100 µL/well according to the CellCounting-Lite™ 2.0 kit instructions, and shaken for 10 minutes. The luminescence value (LUM) was read on a multi-function plate reader, and the relative viability of the cells was calculated.
Relative viability of tumor cells V (%)=(LUM-LUMbackground)/(LUMnormal control−LUMbackground)×100%. LUMbackground was the background reading of the complete culture medium well added with the detection reagent. The half inhibitory concentration (IC50) was calculated using GraphPad Prism 8.0.1 statistical software.

[9] = system: U87MG-Luc glioblastoma cell in situ transplantation tumor; experiment: S2 in U87MG-Luc glioblastoma in situ transplantation tumor model in nude mice (Example 4); assay type: in vivo, BALB/c nude mice; settings: for Overall survival period: vehicle 31; for Median survival period: vehicle 31.5
Experimental: Before the transplantation, the U87MG-Luc cells were digested with 0.05%-trypsin-EDTA, resuspended with pre-cooled PBS to 4×10^7 cells/mL, and transferred to ice for later use. The nude mice were anesthetized with isoflurane gas, and then fixed on a stereotaxic machine in a prone position. The scalp of the nude mouse was disinfected with iodophor, and incised sagittally with a scalpel. The incision was cleaned with iodophor. The skull was exposed, and drilled with a skull drill extending 1.0 mm in front of the bregma and deviating the right side 2.0 mm. 5 μL of cell suspension (2×10^5 cells) was manually injected with a 10 μL flat-head microsyringe, with inserting the needle to a depth of 3.5 mm, withdrawing the needle 0.5 mm, and injecting for about 10 minutes. After stopping the injection for 5 minutes, the needle was slowly removed, and the incision was sterilized and sutured. Finally 50,000 units of penicillin was injected intramuscularly to prevent infection.
On days 4, 12, 18, and 25 after the transplantation, 200 μL of 15 mg/mL D-luciferin potassium salt solution, which was filtered and sterilized through a 0.22 μm filter, was injected intraperitoneally. After 10 minutes, IVI chemiluminescence detection (bright field+bioluminescence imaging) was performed using the mouse in vivo imaging system (PE company IVIS Lumina XR). Luorescence intensity was analyzed using Living Image software to obtain fluorescence intensity [p/s], which reflected the size of tumor tissue in the brain of experimental animals.
The survival conditions of experimental animals were monitored, and the animals' death dates were recorded timely.
Quantitative data are expressed as mean±standard error. Each pharmacodynamic index was plotted using GraphPad Prism (8.0.1) software, differences between groups were tested by one-way ANOVA or two-way repeat ANOVA, followed by Fisher's LSD test, and survival analysis was performed by Kaplan-Meier. P<0.05 was defined as a significant difference.

CCOC(=O)C1=C(C)Nc2nc3c(c(N)c2C1c1ccccc1Cl)CC(C)(C)CC3 (stereo not drawn) [Compound S2]
Rank of vacuolation-inducing activity among the derivatives [1]: strongest vacuolation-inducing activity
Induction of vacuolation in T98 cells ([1]; FIG. 1 and Table 1): can induce vacuolation
Induction of vacuolation [2]: can induce vacuolation
Induction of vacuolation [3]: can also induce vacuolation
Induction of vacuolation [4]: can induce vacuolation
Induction of vacuolation [5]: can induce vacuolation
Induction of vacuolation [6]: can induce vacuolation
Induction of vacuolation [7]: can also induce vacuolation
IC50 [8]: 4.7 to 14.3 µM
Overall survival period ([9]; S2 0.25 mg/kg): 32 days
Median survival period ([9]; S2 0.25 mg/kg): 32.5 days
Survival rate vs vehicle (Log-rank, FIG. 8) ([9]; S2 0.5 mg/kg IV): significantly increased the survival rate
Tumor growth after two weeks of administration vs vehicle (FIG. 7) ([9]; S2 0.5 mg/kg IV): significant inhibitory effect on tumor growth
Growth of U87MG in situ tumors in the brain vs vehicle (growth curve, FIG. 6) ([9]; S2 0.5 mg/kg IV once a day for 15 days): significantly inhibit the growth
Overall survival period ([9]; S2 0.5 mg/kg): 33 days
Median survival period ([9]; S2 0.5 mg/kg): 33.5 days
Survival rate vs vehicle (Log-rank, FIG. 8) ([9]; S2 1 mg/kg IV): significantly increased the survival rate
Tumor growth after two weeks of administration vs vehicle (FIG. 7) ([9]; S2 1 mg/kg IV): significant inhibitory effect on tumor growth
Growth of U87MG in situ tumors in the brain vs vehicle (growth curve, FIG. 6) ([9]; S2 1 mg/kg IV once a day for 15 days): significantly inhibit the growth
Rank of inhibitory effect on tumor among S2 dose groups ([9]; S2 1 mg/kg IV, after two weeks): strongest inhibitory effect on tumor
Overall survival period ([9]; S2 1 mg/kg): 36 days
Median survival period ([9]; S2 1 mg/kg): 35 days
Growth of U87MG glioma in the brain of nude mice (FIG. 7 legend) ([9]; administration of S2 for 2 weeks, dose not given in legend): inhibited the growth of U87MG glioma
Survival period of nude mice with orthotopically transplanted brain glioma (FIG. 8 legend) ([9]; dose not given in legend): prolonged the survival period
